Measurements from the NIST ThermoML archive (doi:10.1016/j.fluid.2006.05.015).

Test: mn = molality of the nth substance listed, in mol/kg
Conditions: Liquid, Constant-volume piezometry

[Br-].[K+] [potassium bromide] + O
Conditions	mass density [kg/m3]
298.15 K, 101 kPa, m1 = 0.2378	1017
298.15 K, 101 kPa, m1 = 0.4645	1035.5
298.15 K, 101 kPa, m1 = 0.944	1073.1
298.15 K, 101 kPa, m1 = 2.231	1167.1
298.94 K, 4079 kPa, m1 = 0.944	1074.6
298.94 K, 13886 kPa, m1 = 0.944	1079.1
298.94 K, 28950 kPa, m1 = 0.944	1085.8
303.15 K, 101 kPa, m1 = 0.2378	1015.5
303.15 K, 101 kPa, m1 = 0.4645	1033.8
303.15 K, 101 kPa, m1 = 0.944	1071.4
303.15 K, 101 kPa, m1 = 2.231	1164.9
305.49 K, 3020 kPa, m1 = 0.2378	1016
305.49 K, 10375 kPa, m1 = 0.2378	1019.1
305.49 K, 27594 kPa, m1 = 0.2378	1026.4
308.15 K, 101 kPa, m1 = 0.2378	1013.7
308.15 K, 101 kPa, m1 = 0.4645	1032
308.15 K, 101 kPa, m1 = 0.944	1069.3
308.15 K, 101 kPa, m1 = 2.231	1162.4
308.32 K, 3256 kPa, m1 = 0.4645	1033.3
308.32 K, 10375 kPa, m1 = 0.4645	1036.5
308.32 K, 29078 kPa, m1 = 0.4645	1044.3
310.59 K, 2118 kPa, m1 = 2.231	1162.1
310.59 K, 14710 kPa, m1 = 2.231	1167.8
310.59 K, 19825 kPa, m1 = 2.231	1170.1
310.59 K, 29828 kPa, m1 = 2.231	1174.5
313.15 K, 101 kPa, m1 = 0.2378	1011.8
313.15 K, 101 kPa, m1 = 0.4645	1030.1
313.15 K, 101 kPa, m1 = 0.944	1067.2
313.15 K, 101 kPa, m1 = 2.231	1159.9
318.15 K, 101 kPa, m1 = 0.2378	1009.8
318.15 K, 101 kPa, m1 = 0.4645	1027.9
318.15 K, 101 kPa, m1 = 0.944	1065
318.15 K, 101 kPa, m1 = 2.231	1157.4
323.15 K, 101 kPa, m1 = 0.2378	1007.5
323.15 K, 101 kPa, m1 = 0.4645	1025.6
323.15 K, 101 kPa, m1 = 0.944	1062.5
323.15 K, 101 kPa, m1 = 2.231	1154.8
328.15 K, 101 kPa, m1 = 0.2378	1005.1
328.15 K, 101 kPa, m1 = 0.4645	1023.2
328.15 K, 101 kPa, m1 = 0.944	1060
328.15 K, 101 kPa, m1 = 2.231	1152.1
333.15 K, 101 kPa, m1 = 0.2378	1002.6
333.15 K, 101 kPa, m1 = 0.4645	1020.5
333.15 K, 101 kPa, m1 = 0.944	1057.4
333.15 K, 101 kPa, m1 = 2.231	1149.3
338.15 K, 101 kPa, m1 = 0.2378	999.9
338.15 K, 101 kPa, m1 = 0.4645	1017.8
338.15 K, 101 kPa, m1 = 0.944	1054.6
338.15 K, 101 kPa, m1 = 2.231	1146.4
343.15 K, 101 kPa, m1 = 0.2378	997.1
343.15 K, 101 kPa, m1 = 0.4645	1014.9
343.15 K, 101 kPa, m1 = 0.944	1051.7
343.33 K, 3923 kPa, m1 = 0.4645	1016.4
343.33 K, 9552 kPa, m1 = 0.4645	1018.7
343.33 K, 16550 kPa, m1 = 0.4645	1021.6
343.33 K, 28570 kPa, m1 = 0.4645	1026.7
348.15 K, 101 kPa, m1 = 0.2378	994.2
348.15 K, 101 kPa, m1 = 0.4645	1012
348.15 K, 101 kPa, m1 = 0.944	1048.7
349.79 K, 3334 kPa, m1 = 0.2378	994.6
349.79 K, 11278 kPa, m1 = 0.2378	997.9
349.79 K, 23461 kPa, m1 = 0.2378	1003.1
349.79 K, 29380 kPa, m1 = 0.2378	1005.5
358.08 K, 3668 kPa, m1 = 0.944	1043.1
358.08 K, 10120 kPa, m1 = 0.944	1046.1
358.08 K, 29145 kPa, m1 = 0.944	1054.5
359.48 K, 3824 kPa, m1 = 2.231	1132.6
359.48 K, 10866 kPa, m1 = 2.231	1135.7
359.48 K, 18995 kPa, m1 = 2.231	1139.3
359.48 K, 25870 kPa, m1 = 2.231	1142.3
380.97 K, 3746 kPa, m1 = 0.4645	990.6
380.97 K, 9316 kPa, m1 = 0.4645	993.2
380.97 K, 21042 kPa, m1 = 0.4645	998.6
380.97 K, 29750 kPa, m1 = 0.4645	1002.5
393.11 K, 3256 kPa, m1 = 0.2378	963.5
393.11 K, 10866 kPa, m1 = 0.2378	967.2
393.11 K, 21065 kPa, m1 = 0.2378	972
393.11 K, 26860 kPa, m1 = 0.2378	974.7
400.81 K, 3099 kPa, m1 = 0.944	1010.2
400.81 K, 9061 kPa, m1 = 0.944	1013
400.81 K, 18381 kPa, m1 = 0.944	1017.7
400.81 K, 25438 kPa, m1 = 0.944	1020.8
432.97 K, 4236 kPa, m1 = 2.231	1073.5
432.97 K, 11356 kPa, m1 = 2.231	1077.7
432.97 K, 16570 kPa, m1 = 2.231	1080.7
432.97 K, 22357 kPa, m1 = 2.231	1084
434.09 K, 4805 kPa, m1 = 0.2378	928.1
434.09 K, 9218 kPa, m1 = 0.2378	930.6
434.09 K, 16941 kPa, m1 = 0.2378	935
434.09 K, 28064 kPa, m1 = 0.2378	941.1
453.99 K, 3825 kPa, m1 = 0.4645	925.6
453.99 K, 9140 kPa, m1 = 0.4645	928.9
453.99 K, 16241 kPa, m1 = 0.4645	933.5
453.99 K, 22957 kPa, m1 = 0.4645	937.5
456.48 K, 4158 kPa, m1 = 0.944	959.4
456.48 K, 10120 kPa, m1 = 0.944	963.3
456.48 K, 17148 kPa, m1 = 0.944	967.9
456.48 K, 24027 kPa, m1 = 0.944	972.2
475.7 K, 4903 kPa, m1 = 0.2378	884.5
475.7 K, 10611 kPa, m1 = 0.2378	888.7
475.7 K, 22060 kPa, m1 = 0.2378	896.6
475.7 K, 29860 kPa, m1 = 0.2378	902
482.36 K, 4413 kPa, m1 = 0.4645	893.9
482.36 K, 8571 kPa, m1 = 0.4645	897
482.36 K, 15175 kPa, m1 = 0.4645	902
482.36 K, 20588 kPa, m1 = 0.4645	905.8
483.32 K, 5217 kPa, m1 = 2.231	1024.2
483.32 K, 12082 kPa, m1 = 2.231	1029.2
483.32 K, 22088 kPa, m1 = 2.231	1036.8
483.32 K, 26194 kPa, m1 = 2.231	1039.4
493.15 K, 4413 kPa, m1 = 0.944	918.4
493.15 K, 11591 kPa, m1 = 0.944	923.9
493.15 K, 21454 kPa, m1 = 0.944	931.3
493.15 K, 25284 kPa, m1 = 0.944	934.3
505.79 K, 5786 kPa, m1 = 2.231	999.3
505.79 K, 11846 kPa, m1 = 2.231	1004
505.79 K, 16954 kPa, m1 = 2.231	1007.9
505.79 K, 23854 kPa, m1 = 2.231	1013.5
511.39 K, 6119 kPa, m1 = 0.4645	858.4
511.39 K, 10297 kPa, m1 = 0.4645	862.3
511.39 K, 16047 kPa, m1 = 0.4645	867.8
511.39 K, 24184 kPa, m1 = 0.4645	875.1
520.89 K, 7355 kPa, m1 = 0.944	884.8
520.89 K, 12082 kPa, m1 = 0.944	889.3
520.89 K, 20122 kPa, m1 = 0.944	896.9
534.22 K, 8081 kPa, m1 = 0.2378	809.6
534.22 K, 11356 kPa, m1 = 0.2378	813.5
534.22 K, 23496 kPa, m1 = 0.2378	827
540.44 K, 8571 kPa, m1 = 0.4645	819.8
540.44 K, 11591 kPa, m1 = 0.4645	823.1
540.44 K, 22189 kPa, m1 = 0.4645	836.2
551.72 K, 9140 kPa, m1 = 0.944	842.2
551.72 K, 14533 kPa, m1 = 0.944	848.7
551.72 K, 21645 kPa, m1 = 0.944	857.5
555.7 K, 9708 kPa, m1 = 2.231	941.3
555.7 K, 13965 kPa, m1 = 2.231	946
555.7 K, 19995 kPa, m1 = 2.231	952.8
555.7 K, 23967 kPa, m1 = 2.231	957
579.16 K, 11670 kPa, m1 = 0.944	797.3
579.16 K, 14220 kPa, m1 = 0.944	803
579.16 K, 20665 kPa, m1 = 0.944	816.1
579.16 K, 23665 kPa, m1 = 0.944	822.3
580.61 K, 11023 kPa, m1 = 0.4645	754.1
580.61 K, 12494 kPa, m1 = 0.4645	757.8
580.61 K, 19782 kPa, m1 = 0.4645	773.2
592.65 K, 11234 kPa, m1 = 0.2378	698.5
592.65 K, 13731 kPa, m1 = 0.2378	706.6
592.65 K, 20610 kPa, m1 = 0.2378	725.2
608.09 K, 16573 kPa, m1 = 0.4645	703.4
608.09 K, 17652 kPa, m1 = 0.4645	707.1
608.09 K, 23146 kPa, m1 = 0.4645	725.8
616.41 K, 14847 kPa, m1 = 0.944	714.7
616.41 K, 15769 kPa, m1 = 0.944	727.1
616.41 K, 19875 kPa, m1 = 0.944	753.5
628.63 K, 17475 kPa, m1 = 2.231	841.1
628.63 K, 18221 kPa, m1 = 2.231	844.9
